Measured values taken from ChEMBL document CHEMBL6103537 (J Med Chem, 2025).
Activity calls are given as the source filed them. The calls are words filed in the database; no cut-off is given here.

What was measured:
[1] = target: T1, Protein cereblon/Signal transducer and activator of transcription 5A/Signal transducer and activator of transcription 5B (Homo sapiens) (UniProt P42229+P51692+Q96SW2); experiment: PROTAC activity at STAT5 at residue Y694/CRBN in human MV4-11 cells assessed as reduction in STAT5 level at upto 10 uM incubated for 12 hrs by Western blot analysis; format: cell-based
[2] = Stability in mouse plasma assessed as parent compound remaining measured at 120 mins by LC-MS/MS analysis; format: ADME, cell-free; details: read-out: Stability
[3] = Stability in monkey plasma assessed as half life measured upto 60 mins by LC-MS/MS analysis; format: ADME, cell-free, Macaca mulatta; details: rhesus monkey
[4] = Metabolic stability in monkey liver microsome assessed as parent compound remaining measured at 30 mins in presence of NADPH by LC-MS/MS analysis; format: ADME, Macaca mulatta; details: rhesus monkey, liver microsomes, read-out: Stability
[5] = target: T2, Protein cereblon/Signal transducer and activator of transcription 6 (Homo sapiens, UniProt P42226+Q96SW2); experiment: PROTAC activity at STAT6/CRBN in human PBMC cells assessed as reduction in STAT6 level at 5 uM incubated for 18 hrs by Western blot analysis relative to control; format: cell-based; set-up: scale not given: the % may be the effect or the level left
[6] = target: T3, Protein cereblon/Signal transducer and activator of transcription 2 (Homo sapiens) (UniProt Q96SW2+P52630); experiment: PROTAC activity at STAT2/CRBN in human MV4-11 cells assessed as reduction in STAT2 level at 10 uM incubated for 12 hrs by Western blot analysis relative to control; format: cell-based
[7] = target: T1, Protein cereblon/Signal transducer and activator of transcription 5A/Signal transducer and activator of transcription 5B (Homo sapiens); experiment: PROTAC activity at STAT5/CRBN in human MV4-11 cells assessed as reduction in STAT5 level at upto 10 uM incubated for 12 hrs by Western blot analysis; format: cell-based
[8] = target: T4, Protein cereblon/Signal transducer and activator of transcription 4 (Homo sapiens) (UniProt Q96SW2+Q14765); experiment: PROTAC activity at STAT4/CRBN in human MV4-11 cells assessed as reduction in STAT4 level at 10 uM incubated for 12 hrs by Western blot analysis; format: cell-based
[9] = Metabolic stability in mouse liver microsome assessed as parent compound remaining measured at 30 mins in presence of NADPH by LC-MS/MS analysis; format: ADME; details: liver microsomes, read-out: Stability
[10] = Stability in mouse plasma assessed as parent compound remaining measured at 15 mins by LC-MS/MS analysis; format: ADME, cell-free; details: read-out: Stability
[11] = Metabolic stability in dog liver microsome assessed as parent compound remaining measured at 45 mins in presence of NADPH by LC-MS/MS analysis; format: ADME, Canis lupus familiaris; details: liver microsomes, read-out: Stability
[12] = Metabolic stability in monkey liver microsome assessed as parent compound remaining measured at 5 mins in presence of NADPH by LC-MS/MS analysis; format: ADME, Macaca mulatta; details: rhesus monkey, liver microsomes, read-out: Stability
[13] = target: T1, Protein cereblon/Signal transducer and activator of transcription 5A/Signal transducer and activator of transcription 5B (Homo sapiens); experiment: PROTAC activity at STAT5/CRBN in human L-1236 cells assessed as reduction in STAT5 level at 10 uM incubated for 24 hrs by Western blot analysis; format: cell-based
[14] = Metabolic stability in dog liver microsome assessed as parent compound remaining measured at 5 mins in presence of NADPH by LC-MS/MS analysis; format: ADME, Canis lupus familiaris; details: liver microsomes, read-out: Stability
[15] = Stability in mouse plasma assessed as parent compound remaining measured at 5 mins by LC-MS/MS analysis; format: ADME, cell-free; details: read-out: Stability
[16] = test system: PBMC; experiment: Downregulation of STAT5 level in human PBMC cells at 5 uM incubated for 18 hrs by Western blot analysis relative to control; format: functional, cell-based
[17] = target: T3, Protein cereblon/Signal transducer and activator of transcription 2 (Homo sapiens); experiment: PROTAC activity at STAT2/CRBN in human L-1236 cells assessed as reduction in STAT2 level at 10 uM incubated for 24 hrs by Western blot analysis; format: cell-based
[18] = Metabolic stability in human liver microsome assessed as parent compound remaining measured at 45 mins in presence of NADPH by LC-MS/MS analysis; format: ADME; details: liver microsomes, read-out: Stability
[19] = target: T2, Protein cereblon/Signal transducer and activator of transcription 6; experiment: PROTAC activity at STAT6/CRBN in human MV4-11 cells assessed as reduction in STAT6 level at 2 uM by HiBiT bioluminescence assay; format: cell-based; details: time <= 1200.0 min
[20] = Stability in rat plasma assessed as parent compound remaining measured at 60 mins by LC-MS/MS analysis; format: ADME, cell-free; details: read-out: Stability
[21] = target: T4, Protein cereblon/Signal transducer and activator of transcription 4 (Homo sapiens); experiment: PROTAC activity at STAT4/CRBN in human L-1236 cells assessed as reduction in STAT4 level at 10 uM incubated for 24 hrs by Western blot analysis; format: cell-based
[22] = test system: PBMC; experiment: Downregulation of STAT3 level in human PBMC cells at 5 uM incubated for 18 hrs by Western blot analysis relative to control; format: functional, cell-based
[23] = Stability in rat plasma assessed as half life measured upto 60 mins by LC-MS/MS analysis; format: ADME, cell-free
[24] = Metabolic stability in rat liver microsome assessed as half life measured upto 60 mins in presence of NADPH by LC-MS/MS analysis; format: ADME; details: liver microsomes
[25] = target: T4, Protein cereblon/Signal transducer and activator of transcription 4 (Homo sapiens); experiment: PROTAC activity at STAT4/CRBN in human PBMC cells assessed as reduction in STAT4 level at 10 uM incubated for 18 hrs by Western blot analysis relative to control; format: cell-based
[26] = target: T2, Protein cereblon/Signal transducer and activator of transcription 6; experiment: PROTAC activity at STAT6/CRBN in human PBMC cells assessed as reduction in STAT6 level at 10 uM incubated for 18 hrs by Western blot analysis relative to control; format: cell-based
[27] = target: Protein cereblon/Signal transducer and activator of transcription 3 (Homo sapiens) (UniProt P40763+Q96SW2); experiment: PROTAC activity at STAT3/CRBN in human L-1236 cells assessed as reduction in STAT3 level at 10 uM incubated for 24 hrs by Western blot analysis; format: cell-based
[28] = Stability in mouse plasma assessed as parent compound remaining measured at 60 mins by LC-MS/MS analysis; format: ADME, cell-free; details: read-out: Stability

Activity [1]: No effect | remaining at 2 h [2]: 79% | half-life [3]: > 2 h | remaining at 0.5 h [4]: 70% | Activity [5]: 79% | Emax [6]: < 40% | Activity [7]: No effect | Activity [8]: inactive | remaining at 0.5 h [9]: 94% | remaining at 0.25 h [10]: 100% | remaining at 0.75 h [11]: 93% | remaining at 5 min [12]: 95% | Activity [13]: No effect | remaining at 5 min [14]: 97% | remaining at 5 min [15]: 102% | Activity [17]: No effect | remaining at 0.75 h [18]: 91% | Activity [19]: Time-dependent-effect | remaining at 1 h [20]: 91% | Activity [21]: No effect | half-life [23]: > 2 h | half-life [24]: > 2 h | Activity [25]: No effect | Emax [26]: > 90% | Activity [27]: No effect | remaining at 1 h [28]: 91%
Structure (SMILES): CC(C)(C)[C@H](NC(=O)c1cc2cc(C(F)(F)P(=O)(O)O)ccc2s1)C(=O)N1C[C@@H](OCCCCCC#Cc2cccc3c2CN(C2CCC(=O)NC2=O)C3=O)C[C@H]1C(=O)N1CCO[C@H](c2ccccc2)C1 (stereo partly drawn)
Activity [16]: inactive | Activity [22]: inactive
